Results as given in ChEMBL document CHEMBL5113375, “Development of Mcl-1 inhibitors for cancer therapy” (Eur J Med Chem, 2021).
One block for each molecule: values may come before it.

Key:
[1] = target: T1, Induced myeloid leukemia cell differentiation protein Mcl-1/BH3-interacting domain death agonist (Homo sapiens, UniProt Q07820); assay: Binding affinity to Mcl-1/Bid (unknown origin) assessed as inhibition constant by fluorescence polarization assay; assay type: protein assay
[2] = target: T2, Bcl-xL/Bcl-2-like protein 11 (Homo sapiens, UniProt Q07817); assay: Binding affinity to Bcl-xL/Bim (unknown origin) assessed as inhibition constant by fluorescence polarization assay; assay type: protein assay
T2 sequence (Q07817 whole entry): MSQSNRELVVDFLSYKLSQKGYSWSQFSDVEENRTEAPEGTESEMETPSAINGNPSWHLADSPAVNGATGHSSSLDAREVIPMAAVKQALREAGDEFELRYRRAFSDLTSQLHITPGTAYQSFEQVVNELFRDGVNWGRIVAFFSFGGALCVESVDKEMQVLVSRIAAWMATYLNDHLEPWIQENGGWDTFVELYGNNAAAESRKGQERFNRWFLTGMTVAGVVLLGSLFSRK
T2 sequence (O43521 whole entry, further chain): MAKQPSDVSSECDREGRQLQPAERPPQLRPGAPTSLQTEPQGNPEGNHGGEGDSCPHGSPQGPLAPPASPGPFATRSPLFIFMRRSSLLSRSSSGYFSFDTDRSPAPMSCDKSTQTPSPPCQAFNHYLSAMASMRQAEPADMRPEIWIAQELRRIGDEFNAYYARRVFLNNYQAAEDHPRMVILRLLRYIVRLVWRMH

BCL2/BID [3] = target: T3, BCL2/BID (Homo sapiens, UniProt P10415); assay: Binding affinity to Bcl-2 /Bid (unknown origin) assessed as inhibition constant by fluorescence polarization assay; assay type: protein assay
T3 sequence (P10415 whole entry): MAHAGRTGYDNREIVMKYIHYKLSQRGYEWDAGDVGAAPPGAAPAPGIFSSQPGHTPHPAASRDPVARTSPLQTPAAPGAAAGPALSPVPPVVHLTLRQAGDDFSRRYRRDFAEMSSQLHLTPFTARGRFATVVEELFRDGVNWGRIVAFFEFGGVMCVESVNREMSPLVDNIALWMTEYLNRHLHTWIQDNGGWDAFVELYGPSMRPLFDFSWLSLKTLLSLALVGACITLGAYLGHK
T3 sequence (P55957 whole entry, further chain): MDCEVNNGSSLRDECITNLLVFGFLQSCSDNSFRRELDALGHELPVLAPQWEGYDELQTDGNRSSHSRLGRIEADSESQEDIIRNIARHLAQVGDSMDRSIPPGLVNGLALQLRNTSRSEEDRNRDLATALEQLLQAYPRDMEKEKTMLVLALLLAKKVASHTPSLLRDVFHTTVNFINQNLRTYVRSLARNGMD

[4] = target: T2, Bcl-xL/Bcl-2-like protein 11; assay: Inhibition of GST-tagged Bcl-xL/Bim (unknown origin) incubated for 15 mins followed by Bim addition measured after 2 hrs by ELISA method; assay type: protein assay
[5] = target: T4, Induced myeloid leukemia cell differentiation protein Mcl-1/Bcl-2-like protein 11 (Homo sapiens, UniProt Q07820); assay: Inhibition of GST-tagged Mcl-1/Bim (unknown origin) incubated for 15 mins followed by Bim addition measured after 2 hrs by ELISA method; assay type: protein assay
T4 sequence (Q07820 whole entry): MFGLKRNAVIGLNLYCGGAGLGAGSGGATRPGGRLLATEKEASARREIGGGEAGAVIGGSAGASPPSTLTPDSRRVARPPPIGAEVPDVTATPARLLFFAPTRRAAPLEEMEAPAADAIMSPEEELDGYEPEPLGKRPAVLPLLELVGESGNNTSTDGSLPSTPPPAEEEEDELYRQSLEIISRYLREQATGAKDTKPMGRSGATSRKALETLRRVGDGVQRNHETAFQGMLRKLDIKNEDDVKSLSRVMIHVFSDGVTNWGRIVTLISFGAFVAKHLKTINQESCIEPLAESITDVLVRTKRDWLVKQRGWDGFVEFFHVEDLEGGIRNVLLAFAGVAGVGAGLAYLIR
T4 sequence (O43521 whole entry, further chain): as the sequence (O43521 whole entry, further chain) above

BCL2/BID [6] = target: T3, BCL2/BID; assay: Binding affinity to Bcl-2/Bid (unknown origin) by fluorescence polarization assay; assay type: protein assay
[7] = target: T5, Bcl-xL/BH3-interacting domain death agonist (Homo sapiens, UniProt Q07817); assay: Binding affinity to Bcl-xL/Bid (unknown origin) by fluorescence polarization assay; assay type: protein assay
T5 sequence (Q07817 whole entry, the tested form may be a part): as the sequence (Q07817 whole entry) above
T5 sequence (P55957 whole entry, further chain, the tested form may be a part): as the sequence (P55957 whole entry, further chain) above

[8] = target: T1, Induced myeloid leukemia cell differentiation protein Mcl-1/BH3-interacting domain death agonist; assay: Binding affinity to Mcl-1/Bid (unknown origin) by fluorescence polarization assay; assay type: protein assay
[9] = target: Induced myeloid leukemia cell differentiation protein Mcl-1 (Homo sapiens, UniProt Q07820); assay: Binding affinity to wildtype Mcl-1 (unknown origin) assessed as dissociation constant by SPR analysis
Induced myeloid leukemia cell differentiation protein Mcl-1, sequence (Q07820 whole entry): as the sequence (Q07820 whole entry) above

[10] = Binding affinity to Mcl-1 H224A (unknown origin) assessed as dissociation constant by SPR analysis; parameters: species or system Homo sapiens
HeLa = assay: Cytotoxicity against human HeLa cells; assay type: functional, cell-based
K562 = assay: Cytotoxicity against human K562 cells; assay type: functional, cell-based
[11] = target: T4, Induced myeloid leukemia cell differentiation protein Mcl-1/Bcl-2-like protein 11; assay: Inhibition of Mcl-1/Bim (unknown origin) by ELISA method; assay type: protein assay
BCL2/BCL2L11 = BCL2/BCL2L11 (Homo sapiens, UniProt P10415); assay: Inhibition of Bcl-2/Bim (unknown origin) by ELISA method; assay type: protein assay
BCL2/BCL2L11, sequence (P10415 whole entry): as the sequence (P10415 whole entry) above
BCL2/BCL2L11, sequence (O43521 whole entry, further chain): as the sequence (O43521 whole entry, further chain) above

MCL1-BAK1 complex = MCL1-BAK1 complex (Homo sapiens, UniProt Q07820); assay: Binding affinity to Mcl-1/Bak (unknown origin) assessed as inhibition constant by fluorescence polarization assay; assay type: protein-complex assay
MCL1-BAK1 complex, sequence (Q07820 whole entry, one chain of several): as the sequence (Q07820 whole entry) above

[12] = target: T2, Bcl-xL/Bcl-2-like protein 11; assay: Inhibition of Bcl-xL/Bim (unknown origin) by ELISA method; assay type: protein assay
[13] = Inhibition of Mcl-1 (172 - 327 residues)/Noxa (unknown origin) by fluorescence polarization assay; parameters: species or system Homo sapiens
[14] = target: Apoptosis regulator Bcl-2/Bcl-2 homologous antagonist/killer (Homo sapiens, UniProt P10415+Q16611); assay: Inhibition of Bcl-2/Bak (unknown origin); assay type: protein assay
Apoptosis regulator Bcl-2/Bcl-2 homologous antagonist/killer, sequence (P10415 whole entry, one chain of several): as the sequence (P10415 whole entry) above

BCL2A1/BAK1 = target: T6, BCL2A1/BAK1 (Homo sapiens, UniProt Q16548+Q16611); assay: Inhibition of Bfl-1/Bak (unknown origin); assay type: protein assay
T6 sequence (Q16611 whole entry): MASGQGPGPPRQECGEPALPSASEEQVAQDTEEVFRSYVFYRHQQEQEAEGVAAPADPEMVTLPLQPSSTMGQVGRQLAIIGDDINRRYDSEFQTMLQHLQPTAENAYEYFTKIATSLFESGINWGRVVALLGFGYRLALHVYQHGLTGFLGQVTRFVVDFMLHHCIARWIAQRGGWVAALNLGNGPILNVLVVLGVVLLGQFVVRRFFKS
T6 sequence (Q16548 whole entry): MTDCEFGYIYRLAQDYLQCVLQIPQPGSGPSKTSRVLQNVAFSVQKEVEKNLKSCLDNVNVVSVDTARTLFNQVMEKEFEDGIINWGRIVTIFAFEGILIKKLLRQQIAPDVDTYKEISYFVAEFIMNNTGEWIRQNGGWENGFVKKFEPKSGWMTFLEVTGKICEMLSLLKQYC

Bcl-xL/BAK = Bcl-xL/BAK (Homo sapiens, UniProt Q07817); assay: Binding affinity to Bcl-xL/Bak (unknown origin) assessed as dissociation constant by ITC method; assay type: protein assay
Bcl-xL/BAK, sequence (Q07817 whole entry, one chain of several, the tested form may be a part): as the sequence (Q07817 whole entry) above

[15] = target: T1, Induced myeloid leukemia cell differentiation protein Mcl-1/BH3-interacting domain death agonist; assay: Inhibition of Mcl-1/Bid (unknown origin) by fluorescence polarization assay; assay type: protein assay
[16] = target: T5, Bcl-xL/BH3-interacting domain death agonist; assay: Inhibition of Bcl-xL/Bid (unknown origin) by fluorescence polarization assay; assay type: protein assay

T1 sequence (Q07820 whole entry, the tested form may be a part): as the sequence (Q07820 whole entry) above
T1 sequence (P55957 whole entry, further chain, the tested form may be a part): as the sequence (P55957 whole entry, further chain) above

Structure (SMILES): COc1ccc(CSc2ccc(C(=O)c3[nH]c(Cl)c(Cl)c3-n3cc(Cl)c(Cl)c3C(=O)c3ccc(SCc4ccc(OC)cc4)cc3O)c(O)c2)cc1
IC50 [4]: 600 nM
IC50 [5]: 700 nM

Structure (SMILES): O=C(Cn1nnnc1-c1ccccc1Oc1ccc(Cl)cc1Cl)NNC(=S)Nc1ccc([N+](=O)[O-])cc1
Ki (BCL2/BID [6]): 2400 nM
Ki [7]: 3000 nM
Ki [8]: 2000 nM

Structure (SMILES): O=C1CCC(N2C(=O)c3cccc4c(Sc5ccc(Br)cc5)ccc(c34)C2=O)C(=O)N1 (stereo not drawn)
Kd [9]: 150 nM
Kd [10]: 130 nM
IC50 (HeLa): 10400 nM
IC50 (K562): 7300 nM
IC50 [11]: 150 nM
IC50 (BCL2/BCL2L11): 430 nM

Structure (SMILES): O=C(COc1ccc2ccccc2c1)NCCN1C(=O)c2cccc3c(Sc4ccc(Br)cc4)ccc(c23)C1=O
Kd [9]: 150 nM
Kd [10]: 1130 nM
IC50 (HeLa): 43200 nM
IC50 (K562): 10100 nM
IC50 [11]: 510 nM
IC50 (BCL2/BCL2L11): 9460 nM

Structure (SMILES): O=C(Cn1nnc(-c2ccccc2Oc2ccc(Cl)cc2Cl)n1)NNC(=S)Nc1ccc([N+](=O)[O-])cc1
Ki (BCL2/BID [6]): 1900 nM
Ki [7]: 3500 nM
Ki [8]: 2200 nM

Structure (SMILES): N#CC1=C(NCCC(=O)CCCCC(=O)NCCCCCNc2cccc3c2C(=O)N(C2CCC(=O)NC2=O)C3=O)c2ccc(Sc3ccc(Br)cc3)c3cccc(c23)C1=O (stereo not drawn)
IC50 [11]: 780 nM
IC50 (BCL2/BCL2L11): 540 nM

Structure (SMILES): CC1=C[C@@H](/C=C(\C)c2ccc(C(=O)O)cc2)[C@]2(C(=O)O)C=C[C@@H](CCOC(=O)c3ccc(Oc4cccnc4)cc3)C[C@@H]2C1
Ki [1]: 106 nM
Ki (MCL1-BAK1 complex): 153 nM

Structure (SMILES): O=C1c2ccc(OS(=O)(=O)C(F)(F)F)cc2Oc2c(Cl)c(Cl)c(C(=O)c3ccc(OS(=O)(=O)C(F)(F)F)cc3O)n2-c2c1[nH]c(Cl)c2Cl
IC50 [11]: 1400 nM
IC50 [12]: 2300 nM

Structure (SMILES): C=C(c1ccc(S(=O)(=O)Nc2cc(-c3ccc(C)c4ccccc34)ccc2C(=O)O)cc1)C(C)C
IC50 [13]: 80 nM

Structure (SMILES): N#CC1=C(NCCC(=O)CCCCC(=O)NCCOCCOCCNc2cccc3c2C(=O)N(C2CCC(=O)NC2=O)C3=O)c2ccc(Sc3ccc(Br)cc3)c3cccc(c23)C1=O (stereo not drawn)
IC50 [11]: 11800 nM
IC50 (BCL2/BCL2L11): 4940 nM

Structure (SMILES): COC(=O)c1ccc(C(=O)c2c(Cl)c(Cl)c3n2-c2c([nH]c(Cl)c2Cl)C(=O)c2ccc(C(=O)OC)cc2O3)c(O)c1
IC50 [11]: 4300 nM
IC50 [12]: 3400 nM

Structure (SMILES): O=C(c1ccc(SCc2ccccc2)cc1O)c1[nH]c(Cl)c(Cl)c1-n1cc(Cl)c(Cl)c1C(=O)c1ccc(SCc2ccccc2)cc1O
IC50 [4]: 600 nM
IC50 [5]: 700 nM

Structure (SMILES): Cc1cc(OCCCS(=O)(=O)N2CC(C(=O)O)Cc3ccccc32)cc(C)c1Cl (stereo not drawn)
Ki (MCL1-BAK1 complex): 7770 nM

Structure (SMILES): Cc1cc2c(C(=O)NC(C)c3ccc(Cl)cc3)c(O)c(O)cc2c(O)c1-c1c(C)cc2c(C(=O)NC(C)c3ccc(Cl)cc3)c(O)c(O)cc2c1O (stereo not drawn)
IC50 [14]: 490 nM
IC50 (BCL2A1/BAK1): 400 nM

Structure (SMILES): Cc1cc2c(C(C)C)c(O)c(O)c(C=O)c2c(O)c1-c1c(C)cc2c(C(C)C)c(O)c(O)c(C=O)c2c1O [GOSSYPOL]
IC50 [15]: 1750 nM
IC50 [16]: 3030 nM

Second part, led by results:

Ki [2]: 830 nM
Ki (BCL2/BID [3]): 1100 nM
Structure (SMILES): O=C(Nc1ccccc1)C1=CN=c2s/c(=C\c3cn(Cc4ccccc4)c4ccccc34)c(=O)n2[C@@H]1c1ccccc1
Ki [1]: 360 nM

Ki [2]: 280 nM
Ki (BCL2/BID [3]): 940 nM
Structure (SMILES): COC(=O)C1=CN=c2s/c(=C\c3cn(Cc4ccccc4)c4ccccc34)c(=O)n2[C@H]1c1ccc(C(C)=O)cc1
Ki [1]: 320 nM

Ki [2]: 340 nM
Ki (BCL2/BID [3]): 590 nM
Structure (SMILES): CCOC(=O)C1=CN=c2s/c(=C\c3cn(Cc4ccccc4)c4ccccc34)c(=O)n2[C@H]1c1cccc(C(C)=O)c1
Ki [1]: 740 nM

Ki [2]: 1100 nM
Ki (BCL2/BID [3]): 810 nM
Structure (SMILES): O=C(Nc1ccccc1)C1=CN=c2s/c(=C\c3cn(Cc4ccccc4)c4ccccc34)c(=O)n2[C@H]1c1ccccc1
Ki [1]: 2200 nM

Ki [2]: 290 nM
Ki (BCL2/BID [3]): 540 nM
Structure (SMILES): CCOC(=O)C1=CN=c2s/c(=C\c3cn(Cc4ccccc4)c4ccccc34)c(=O)n2[C@@H]1c1cccc(C(C)=O)c1
Ki [1]: 290 nM

Ki [2]: 550 nM
Ki (BCL2/BID [3]): 1000 nM
Structure (SMILES): COC(=O)C1=CN=c2s/c(=C\c3cn(Cc4ccccc4)c4ccccc34)c(=O)n2[C@@H]1c1ccc(C(C)=O)cc1
Ki [1]: 420 nM

Ki (MCL1-BAK1 complex): 6900 nM
Kd (Bcl-xL/BAK): 3400 nM
Structure (SMILES): COc1cccc(-c2ccc(/C=C3\SC(=S)N([C@@H](Cc4ccccc4)C(=O)O)C3=O)cn2)c1OC
